# Laboratory results: PMC11944514, “Dengue Virus Inhibitors as Potential Broad-Spectrum Flavivirus Inhibitors” (Pharmaceuticals, 2025)
# “Also recorded” adds a separate entry of the source.
# Tests used:
# ZIKV-Nanoluc replicon = type: cell-based
# KUNV-Nanoluc replicon = type: cell-based
# KUNV-Nanoluc = assay: organism not typed; type: cell-based; settings: for EC50: Vero C1008, read-out: KUNV EC50, μM
# TBEV-Nanoluc = assay: microbe, parasite or virus in culture; type: cell-based; settings: for EC50: Tick-borne encephalitis virus, Vero C1008, read-out: TBEV EC50, μM
# ZIKV = test system: ZIKV; design: method as in PMID 32452420; settings: Vero E6 cells; read-out: EC50, inhibition of ZIKV replication; cited from earlier work
# [1] = xCELLigence real-time cytotoxicity assay (RTCA), CC50; type: cell-based; settings: African green monkey, Vero E6 cells, 24 h of exposure
# Method: As compounds C1, C2, and C3 were relatively toxic (Figure 2A), we determined the selectivity index (SI) of the identified potential broad-spectrum flavivirus inhibitors. As the WST-1 assay tends to underestimate the toxic effect and is unable to detect cytostatic effects, the CC50 of the perspective compounds was measured using a more sensitive xCELLigence real-time cytotoxicity assay (RTCA). […] The full xCELLigence RTCA data are provided in the Supporting Information section (Figures S2 and S3). Thereafter, for each compound, the SI was calculated as a ratio of the CC50 of a compound against its EC50 [36].
# Vero E6 cells were seeded on a 16-well E-plate (ACEA Biosciences, Inc., San Diego, CA, USA ) at a density of 5 × 10^3 cells/well and allowed to adhere overnight. On the next day, the studied compounds were added at the final concentrations ranging from 0.078 μM to 5 μM with a two-fold dilution step for compounds C1, C2, and C3, and at the final concentrations ranging from 1.56 μM to 50 μM with a two-fold dilution step for compounds C5 and C6; 0.01% DMSO was used as a solvent control. The cells were incubated for 5 days, and the signals between the electrodes (impedance) were recorded using an RTCA xCELLigence machine (Agilent Technologies, Inc., Santa Clara, CA, USA). […] The CC50 values were calculated using GraphPad Prism 10.0 for Windows, GraphPad Software, v. 10.4.1, Boston, MA, USA, www.graphpad.com (accessed on 16 February 2025).
# TBEV-Nanoluc replicon = type: cell-based
# DENV2-Nanoluc = assay: microbe, parasite or virus in culture; type: cell-based; settings: for EC50: Dengue virus, DENV2, Vero C1008, read-out: DENV2 EC50, μM
# ZIKV-Nanoluc = assay: microbe, parasite or virus in culture; type: cell-based; settings: for EC50: Zika virus, Vero C1008, read-out: ZIKV EC50, μM
# WNV, DENV, and YFV = settings: cited from earlier work
# DENV2-Nanoluc replicon = type: cell-based
# DENV-2-NGC = test system: DENV-2-NGC; design: method as in PMID 17360676; settings: Vero E6 cells; read-out: EC50, inhibition of DENV-2-NGC activity; cited from earlier work
# U2OS cells [2] = assay: WST-1 cell viability assay, U2OS; type: cell-based, human; settings: 48 h of exposure
# Method: (§1) Vero E6 or U2OS cells were seeded on the 96-well plate at a density of 1 × 10^4 cells/well and were allowed to adhere overnight. Next day, the cells were treated with the studied compounds at concentrations ranging from 1 to 100 μM with a ten-fold dilution step. As a solvent control, 0.01% DMSO (Sigma, St. Louis, MO, USA) was used. After 48 h of exposure, 10 μL of WST-1 (10 mg/mL) cell proliferation reagent (Roche, Cat. No. 11644807001) was added to each well, and plates were incubated at 37 °C, 5% CO2 for 2 h. The optical density was then measured at 450 nm using an Epoch Microplate Spectrophotometer (BioTek Instruments, Inc., Winooski, VT, USA). Four independent experiments were carried out in triplicates.
# U2OS cells [3] = test system: U2OS cells; design: method as in PMID 31609477; settings: previously reported; read-out: 50% cytotoxic concentration (CC50) against U2OS cells; cited from earlier work
# Vero E6 cells [4] = assay: WST-1 cell viability assay, Vero E6; type: cell-based, African green monkey; settings: Vero E6, 48 h of exposure
# Method: (§2) The cytotoxic effect of all studied compounds was assessed using the WST-1 assay after 48 h of exposure. […] This observation can be explained by the fact that the compound C8 is resazurin, phenoxazine dye, also known as Alamar Blue, which is subject to irreversible metabolic reduction to the resorufin by live mammalian cells. Thus, the cytotoxic effect of this compound cannot be assessed by the WST-1 assay correctly. Therefore, the C8 cytotoxicity was further assessed using the resazurin cell viability assay. This assay allowed us to avoid the interference between the tested compound and dye and obtain more reliable results for colored compounds.
# as §1
# Vero E6 cells [5] = assay: Resazurin cell viability assay, Vero E6; type: cell-based, African green monkey; settings: Vero E6, 48 h of exposure
# Method: as §2
# Vero E6 cells were seeded on a 96-well plate at a density of 1 × 10^4 cells/well and were allowed to adhere overnight. On the next day, the medium was replaced with a fresh complete growth medium containing the desired compound at final concentrations ranging from 1 μM to 100 μM with a ten-fold dilution step; 0.05% DMSO was used as a solvent control. […] Thereafter, the fluorescence was measured by a Synergy H1 Hybrid Multi-Mode Microplate Reader (BioTek Instruments, Inc., Winooski, VT, USA) using a 540 nm excitation and 590 nm emission filter. […]
structure (smiles),measurement,setting,value
"O[C@H]1[C@H]2c3cc4c(cc3CN3CCC(=C[C@@H]1O)[C@H]23)OCO4 [Compound C1, (1S,17S,18S,19S)-5,7-dioxa-12-azapentacyclo[10.6.1.0^2,^10.0^4,^8.0^15,^19]nonadeca-2(10),3,8,15-tetraene-17,18-diol]",antiviral effect against ZIKV-Nanoluc replicon,ZIKV-Nanoluc replicon,later addition (at 8 h post-transfection) of C1 had a lower antiviral effect compared to earlier
same,antiviral effect against KUNV-Nanoluc replicon,KUNV-Nanoluc replicon,later addition (at 8 h post-transfection) of C1 had a lower antiviral effect compared to earlier
same,antiviral effect against KUNV-Nanoluc (initial screening),KUNV-Nanoluc,apparent dose-dependent antiviral effect
same,EC50,KUNV-Nanoluc,0.17 µM
same,antiviral effect against TBEV-Nanoluc (initial screening),TBEV-Nanoluc,the ten-fold increase in concentration did not lead to any significant improvement of the antiviral effect
same,concentration at which the antiviral effect appeared (TBEV-Nanoluc),TBEV-Nanoluc,0.2 µM
same,EC50,TBEV-Nanoluc,0.09 µM
same,EC50,ZIKV,390 nM
same,CC50 at 24 h,[1],1.3 µM
same,antiviral effect against TBEV-Nanoluc replicon,TBEV-Nanoluc replicon,later addition (at 8 h post-transfection) of C1 had a lower antiviral effect compared to earlier
same,antiviral effect against DENV2-Nanoluc (initial screening),DENV2-Nanoluc,apparent dose-dependent antiviral effects
same,EC50,DENV2-Nanoluc,0.09 µM
same,antiviral effect against ZIKV-Nanoluc (initial screening),ZIKV-Nanoluc,completely inhibited the ZIKV-Nanoluc replication at the maximum tested concentration
same,concentration at which a statistically significant antiviral effect appeared (ZIKV-Nanoluc),ZIKV-Nanoluc,0.2 µM
same,EC50,ZIKV-Nanoluc,0.13 µM
same,"reduction of viral titers of WNV, DENV, and YFV","WNV, DENV, and YFV",10^2- to 10^4 fold
same,antiviral effect against DENV2-Nanoluc replicon,DENV2-Nanoluc replicon,later addition (at 8 h post-transfection) of C1 had a lower antiviral effect compared to earlier
"COc1c(C)c2c(c(O)c1CC=C(C)CCC(=O)O)C(=O)OC2 [Compound C3, 6-(4-hydroxy-6-methoxy-7-methyl-3-oxo-1,3-dihydro-2-benzofuran-5-yl)-4-methylhex-4-enoic acid]",antiviral effect against ZIKV-Nanoluc replicon,ZIKV-Nanoluc replicon,no effect at the maximum non-toxic concentration
same,antiviral effect against KUNV-Nanoluc replicon,KUNV-Nanoluc replicon,no effect at the maximum non-toxic concentration
same,antiviral effect against KUNV-Nanoluc (initial screening),KUNV-Nanoluc,apparent dose-dependent antiviral effect
same,EC50,KUNV-Nanoluc,0.21 µM
same,antiviral effect against TBEV-Nanoluc (initial screening),TBEV-Nanoluc,clear dose-dependent antiviral effect
same,EC50,TBEV-Nanoluc,0.61 µM
same,CC50 at 24 h,[1],> 5 µM
same,EC50,DENV-2-NGC,5700 nM
same,antiviral effect against TBEV-Nanoluc replicon,TBEV-Nanoluc replicon,no effect at the maximum non-toxic concentration
same,antiviral effect against DENV2-Nanoluc (initial screening),DENV2-Nanoluc,apparent dose-dependent antiviral effects
same,EC50,DENV2-Nanoluc,0.12 µM
same,cytotoxic effect (WST-1 assay),U2OS cells [2],extremely toxic for the U2OS cell line even at the lowest micromolar concentration
same,antiviral effect against ZIKV-Nanoluc (initial screening),ZIKV-Nanoluc,only demonstrated a statistically significant antiviral effect at the maximum tested concentration
same,EC50,ZIKV-Nanoluc,0.53 µM
same,CC50,U2OS cells [3],1660 nM
same,antiviral effect against DENV2-Nanoluc replicon,DENV2-Nanoluc replicon,no effect at the maximum non-toxic concentration
"Nc1nc(N)c2c(Oc3ccc(F)cc3)cccc2n1 [Compound C4, 5-(4-fluorophenoxy)quinazoline-2,4-diamine]",antiviral effect against TBEV-Nanoluc (initial screening),TBEV-Nanoluc,partially inhibit viral replication at the minimal tested concentration without an apparent dose-dependent effect
same,CC50 at 24 h,[1],> 0.2 µM
same,antiviral effect against DENV2-Nanoluc (initial screening),DENV2-Nanoluc,negligible inhibition effect at the maximum tested concentration
same,antiviral effect against ZIKV-Nanoluc (initial screening),ZIKV-Nanoluc,some tendency to decrease the ZIKV-Nanoluc activity at a concentration of 2 μM
"O=[N+]([O-])c1c(Nc2ccccc2O)cc(Cl)c2nonc12 [Compound C5, 2-[(7-chloro-4-nitro-2,1,3-benzoxadiazol-5-yl)amino]phenol]",antiviral effect against KUNV-Nanoluc (initial screening),KUNV-Nanoluc,decreased the KUNV-Nanoluc activity only at the maximum tested concentrations
same,EC50,KUNV-Nanoluc,8.9 µM
same,antiviral effect against TBEV-Nanoluc (initial screening),TBEV-Nanoluc,clear dose-dependent antiviral effect
same,EC50,TBEV-Nanoluc,9.88 µM
same,CC50 at 24 h,[1],12.8 µM
same,cytotoxic effect (WST-1 assay),Vero E6 cells [4],moderate cytotoxic effect at 50 μM
same,antiviral effect against DENV2-Nanoluc (initial screening),DENV2-Nanoluc,apparent dose-dependent antiviral effects
same,EC50,DENV2-Nanoluc,2.91 µM
same,antiviral effect against ZIKV-Nanoluc (initial screening),ZIKV-Nanoluc,"at the 50 μM concentration, the virus activity was completely inhibited"
same,EC50,ZIKV-Nanoluc,10.4 µM
"Nc1ncnc2c1ncn2C1OC(CO)C(O)C1O (centres unmarked) [Compound C7, 2-(6-amino-9H-purin-9-yl)-5-(hydroxymethyl)oxolane-3,4-diol]",antiviral effect against ZIKV-Nanoluc replicon,ZIKV-Nanoluc replicon,inactive against all studied flavivirus replicons at the maximal non-toxic concentration
same,antiviral effect against KUNV-Nanoluc replicon,KUNV-Nanoluc replicon,inactive against all studied flavivirus replicons at the maximal non-toxic concentration
same,antiviral effect against KUNV-Nanoluc (initial screening),KUNV-Nanoluc,slight inhibition effect was observed for compound C7 at the 50 μM concentration
same,antiviral effect against TBEV-Nanoluc (initial screening),TBEV-Nanoluc,clear dose-dependent antiviral effect
same,EC50,TBEV-Nanoluc,8.33 µM
same,CC50 at 24 h,[1],> 50 µM
same,cytotoxic effect (WST-1 assay),Vero E6 cells [4],no cytotoxic effect at the maximal tested concentration
same,antiviral effect against TBEV-Nanoluc replicon,TBEV-Nanoluc replicon,no inhibition of TBEV replication was observed; also recorded: inactive against all studied flavivirus replicons at the maximal non-toxic concentration
same,cytotoxic effect (WST-1 assay),U2OS cells [2],more toxic for the U2OS cells at the maximum tested concentration than in the Vero E6 cells
same,antiviral effect against DENV2-Nanoluc replicon,DENV2-Nanoluc replicon,slight inhibition effect against DENV2-Nanoluc if it was added at 1 h post-transfection; also recorded: inactive against all studied flavivirus replicons at the maximal non-toxic concentration
"O=c1ccc2[n+]([O-])c3ccc([O-])cc3oc-2c1.[Na+] [Compound C8, sodium 3-oxo-3H-phenoxazin-10-ium-7,10-bis(olate)]",cytotoxic effect (resazurin cell viability assay),Vero E6 cells [5],no cytotoxic effect
same,antiviral effect against TBEV-Nanoluc (initial screening),TBEV-Nanoluc,partially inhibit viral replication at the minimal tested concentration without an apparent dose-dependent effect
same,CC50 at 24 h,[1],> 50 µM
same,cytotoxic effect (WST-1 assay),Vero E6 cells [4],inverse dose-dependent effect
same,antiviral effect against DENV2-Nanoluc (initial screening),DENV2-Nanoluc,negligible inhibition effect at the maximum tested concentration; also recorded: no antiviral effect against DENV2-Nanoluc in the tested concentrations range
